In paper PMC12339378 (Molecular Psychiatry, 2025):

Assays:
[1] = test system: HCN channel Ih currents in VTA DA neurons; assay type: cell-based, mice
VTA DA neurons = assay type: cell-based, mice; conditions: 750 µM local application for 3 min; cell-attached; average
[2] = cited from earlier work

SMILES	percent inhibition of Ih currents in VTA DA neurons [1]	percent inhibition of firing rate in VTA DA neurons (VTA DA neurons)	ability to cross the blood-brain barrier (BBB) [2]
COc1cc2c(cc1OC)CC(=O)N(CCCN(C)C[C@H]1Cc3cc(OC)c(OC)cc31)CC2 [Ivabradine]	significant inhibition of the Ih current	61.1%	limited abilities to cross the blood-brain barrier
COc1ccc(CCN(C)CCCN2CCc3cc(OC)c(OC)cc3CC2=O)cc1OC [Zatebradine]	significant inhibition of the Ih current	59.7%	
COc1cc2c(cc1OC)CC(=O)N(C[C@H]1CCCN(CCOc3ccccc3)C1)CC2 [compound 3]	less efficacious than Cilobradine		
COc1cc2c(cc1OC)CC(=O)N(C[C@H]1CCCN(CCOc3ccccc3F)C1)CC2 [compound 4]	less efficacious than Cilobradine		
COc1ccc(CCN2CCO[C@H](CN3CCc4cc(OC)c(OC)cc4CC3=O)C2)cc1OC [compound 6]	less efficacious than Cilobradine		
COc1ccc(C(F)(F)CN(C)CCCN2CCc3cc(OC)c(OC)cc3CC2=O)cc1OC [compound 8]	no efficacy		
COc1cc2c(cc1OC)CC(=O)N(C[C@H]1CCCN(C(=O)OC(C)(C)C)C1)CC2 [compound 11]	less than half the efficacy of Cilobradine		
